Source: US20100168125A1, “INDOLIZINES AND AZA-ANALOG DERIVATIVES THEREOF AS CNS ACTIVE COMPOUNDS” (priority 2007, published 2010)
pKi: −log10 of the molar value. Like-named read-outs stand apart in the source and are kept apart here.

How the values were obtained:
human D2long receptor = molecular target: T1, human D2long receptor (Homo sapiens, UniProt P14416); test: radioligand binding with [^3H]spiperone, D2long; conditions: read-out: Ki D2lo
T1 construct: expressed in transfected cells; host or cells: Chinese hamster ovary (CHO) cells, membranes
T1 sequence (P14416 whole entry): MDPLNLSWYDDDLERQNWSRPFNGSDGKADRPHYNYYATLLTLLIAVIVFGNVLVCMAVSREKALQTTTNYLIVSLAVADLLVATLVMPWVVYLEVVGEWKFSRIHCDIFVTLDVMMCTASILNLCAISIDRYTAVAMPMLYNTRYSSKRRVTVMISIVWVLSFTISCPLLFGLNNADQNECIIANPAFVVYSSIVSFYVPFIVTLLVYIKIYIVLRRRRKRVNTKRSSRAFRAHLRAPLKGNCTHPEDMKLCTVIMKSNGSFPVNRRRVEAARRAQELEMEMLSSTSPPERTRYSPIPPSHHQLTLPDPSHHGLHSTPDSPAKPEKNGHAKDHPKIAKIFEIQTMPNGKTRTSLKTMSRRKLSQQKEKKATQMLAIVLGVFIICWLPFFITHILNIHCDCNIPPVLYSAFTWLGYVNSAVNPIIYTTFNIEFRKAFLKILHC
Method: (§1) For the determination of binding affinity to the receptors of the dopamine D2 family membranes were established carrying the human D2long, D2short, D3 or D4.4 receptor subtype expressed in Chinese hamster ovary cell lines. In principle, the binding experiments started when incubating an appropriate amount of membrane with the radioligand [^3H]spiperone and the particular test compounds diluted in a wide range of different concentrations from subnanomolar up to micromolar.

human D2short receptor = molecular target: T2, human D2short receptor (Homo sapiens, UniProt P14416); test: radioligand binding with [^3H]spiperone, D2short; conditions: read-out: Ki D2sh
T2 construct: expressed in transfected cells; host or cells: Chinese hamster ovary (CHO) cells, membranes
T2 sequence (P14416 1-414 isoform P14416-2): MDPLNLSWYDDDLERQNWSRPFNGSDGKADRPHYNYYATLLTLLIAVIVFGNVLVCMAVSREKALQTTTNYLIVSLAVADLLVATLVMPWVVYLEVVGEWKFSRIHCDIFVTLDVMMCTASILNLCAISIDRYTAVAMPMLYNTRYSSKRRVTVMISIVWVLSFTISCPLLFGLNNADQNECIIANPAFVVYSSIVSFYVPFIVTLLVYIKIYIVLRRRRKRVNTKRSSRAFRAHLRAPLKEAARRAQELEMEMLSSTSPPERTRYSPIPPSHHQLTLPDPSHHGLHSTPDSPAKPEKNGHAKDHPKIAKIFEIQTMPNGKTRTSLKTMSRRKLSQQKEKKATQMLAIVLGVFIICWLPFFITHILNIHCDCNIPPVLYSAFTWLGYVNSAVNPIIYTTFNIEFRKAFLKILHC
Method: as §1

human D3 receptor = molecular target: T3, human D3 receptor (Homo sapiens, UniProt P35462); test: radioligand binding with [^3H]spiperone, D3
T3 construct: expressed in transfected cells; host or cells: Chinese hamster ovary (CHO) cells, membranes
T3 sequence (P35462 whole entry): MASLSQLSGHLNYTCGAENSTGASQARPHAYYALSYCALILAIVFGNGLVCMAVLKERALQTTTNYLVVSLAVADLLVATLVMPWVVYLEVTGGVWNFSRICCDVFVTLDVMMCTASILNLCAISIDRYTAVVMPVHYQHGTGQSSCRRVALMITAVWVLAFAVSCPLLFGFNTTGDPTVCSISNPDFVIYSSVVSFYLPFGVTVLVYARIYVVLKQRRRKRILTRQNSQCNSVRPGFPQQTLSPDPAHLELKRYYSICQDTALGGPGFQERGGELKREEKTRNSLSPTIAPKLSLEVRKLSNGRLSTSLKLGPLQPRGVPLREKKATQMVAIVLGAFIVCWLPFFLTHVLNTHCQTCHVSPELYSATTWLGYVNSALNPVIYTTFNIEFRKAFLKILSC
Method: as §1

human D4.4 receptor = molecular target: T4, human D4.4 receptor (Homo sapiens, UniProt P21917); test: radioligand binding with [^3H]spiperone, D4.4
T4 construct: expressed in transfected cells; host or cells: Chinese hamster ovary (CHO) cells, membranes
T4 sequence (P21917 1-419): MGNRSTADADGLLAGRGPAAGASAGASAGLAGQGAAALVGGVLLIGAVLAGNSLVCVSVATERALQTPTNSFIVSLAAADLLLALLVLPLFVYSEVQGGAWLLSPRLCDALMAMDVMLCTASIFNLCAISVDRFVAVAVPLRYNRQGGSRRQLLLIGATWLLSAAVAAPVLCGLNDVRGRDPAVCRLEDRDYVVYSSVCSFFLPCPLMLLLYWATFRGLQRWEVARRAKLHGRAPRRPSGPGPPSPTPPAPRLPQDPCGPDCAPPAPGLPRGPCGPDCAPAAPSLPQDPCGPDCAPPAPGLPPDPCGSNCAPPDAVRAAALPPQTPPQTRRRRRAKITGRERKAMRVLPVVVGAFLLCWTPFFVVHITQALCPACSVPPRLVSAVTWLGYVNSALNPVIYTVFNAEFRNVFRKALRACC
Method: as §1

5-HT1A receptor = molecular target: T5, 5-HT1A receptor (Sus scrofa, UniProt A0A4X1UTF5); test: radioligand binding, porcine cortical membranes, [^3H]8-OH-DPAT and [^3H]WAY 100635
T5 construct: membrane preparations from porcine cortical material; from tissue; host or cells: porcine cerebral cortex membranes
T5 sequence (A0A4X1UTF5 1-422): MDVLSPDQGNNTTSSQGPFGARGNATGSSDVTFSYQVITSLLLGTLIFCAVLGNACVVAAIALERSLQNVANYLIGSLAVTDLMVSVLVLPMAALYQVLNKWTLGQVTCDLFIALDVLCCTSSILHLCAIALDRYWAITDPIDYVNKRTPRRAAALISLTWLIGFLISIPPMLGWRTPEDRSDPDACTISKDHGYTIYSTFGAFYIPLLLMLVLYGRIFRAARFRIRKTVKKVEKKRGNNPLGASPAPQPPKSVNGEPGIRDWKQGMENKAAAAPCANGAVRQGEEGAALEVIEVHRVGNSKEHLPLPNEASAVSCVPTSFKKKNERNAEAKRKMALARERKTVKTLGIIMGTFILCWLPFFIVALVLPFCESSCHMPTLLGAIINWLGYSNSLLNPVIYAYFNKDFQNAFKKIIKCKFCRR

5-HT2 receptor = molecular target: T6, 5-HT2 receptor (Sus scrofa, UniProt P50129); test: radioligand binding, porcine cortical membranes, [^3H]ketanserin
T6 construct: membrane preparations from porcine cortical material; from tissue; host or cells: porcine cerebral cortex membranes
T6 sequence (P50129 whole entry): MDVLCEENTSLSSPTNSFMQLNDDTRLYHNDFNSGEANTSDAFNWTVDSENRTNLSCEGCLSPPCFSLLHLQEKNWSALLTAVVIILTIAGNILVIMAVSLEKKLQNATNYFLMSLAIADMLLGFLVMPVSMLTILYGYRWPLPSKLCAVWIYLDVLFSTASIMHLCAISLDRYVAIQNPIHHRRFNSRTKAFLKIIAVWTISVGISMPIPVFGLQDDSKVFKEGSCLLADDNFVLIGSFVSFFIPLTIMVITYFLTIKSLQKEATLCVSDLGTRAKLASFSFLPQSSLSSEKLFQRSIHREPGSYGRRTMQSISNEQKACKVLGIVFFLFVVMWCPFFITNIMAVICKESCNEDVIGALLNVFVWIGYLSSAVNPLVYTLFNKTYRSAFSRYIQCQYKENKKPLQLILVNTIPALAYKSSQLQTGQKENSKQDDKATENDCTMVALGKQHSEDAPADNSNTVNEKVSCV

[1] = molecular target: dopamine D2short receptor (Homo sapiens, UniProt P14416); test: [^35S]GTPγS-incorporation assay, intrinsic activity
Sequence of dopamine D2short receptor (P14416 1-414 isoform P14416-2): as the sequence (P14416 1-414 isoform P14416-2) above

[2] = [^3H]spiperone, CHO membranes, mean of 2 to 4 experiments
[3] = porcine cortical membranes, [^3H]ketanserin
[4] = read-out: D2short: [^35S]GTPγS intrinsic activity, % activity of quinpirol
[5] = ether alkylene linker compounds
[6] = read-out: D2short: [^35S]GTPγS intrinsic activity

Structure (SMILES): Clc1ccccc1N1CCN(CCCCOc2ccn3ncc(Cl)c3c2)CC1 [Example E47, 3-Chloro-5-[4-[4-(2-chlorophenyl)piperazin-1-yl]butoxy]pyrazolo[1,5-a]pyridine]
- pKi (human D2long receptor; [2]): 6.52 to 7.52
- pKi (human D2short receptor; [2]): > 7.52
- pKi (human D3 receptor; [2]): > 7.52
- pKi (human D4.4 receptor; [2]): 6.52 to 7.52
- pKi (5-HT1A receptor; porcine cortical membranes): 6.52 to 7.52
- pKi (5-HT2 receptor; [3]): 5.52 to 6.52
- melting point: 63 °C
- Emax [1, 4]: < 15%

Structure (SMILES): Clc1cccc(N2CCN(CCCCOc3cccc4ccnn34)CC2)c1Cl [Example E57, 7-[4-[4-(2,3-Dichlorophenyl)piperazin-1-yl]butoxy]pyrazolo[1,5-a]pyridine]
- pKi (human D2long receptor; [2]): 6.52 to 7.52
- pKi (human D2short receptor; [2]): > 7.52
- pKi (human D3 receptor; [2]): > 7.52
- pKi (human D4.4 receptor; [2]): 6.52 to 7.52
- pKi (5-HT1A receptor; porcine cortical membranes): 6.52 to 7.52
- pKi (5-HT2 receptor; [3]): 6.52 to 7.52
- melting point: 74 °C
- Emax [1, 4]: 15 to 40%

Structure (SMILES): COc1ccc(N2CCN(CCCCOc3ccn4nccc4c3)CC2)cc1 [Example E18]
- pKi (human D2long receptor; [2]): < 5.52
- pKi (human D2short receptor; [2]): 5.52 to 6.52
- pKi (human D3 receptor; [2]): 6.52 to 7.52
- pKi (human D4.4 receptor; [2]): 5.52 to 6.52
- pKi (5-HT1A receptor; porcine cortical membranes): 6.52 to 7.52
- pKi (5-HT2 receptor; [3]): 5.52 to 6.52
- melting point: 111 °C
- Emax [1, 4]: < 15%

Structure (SMILES): O=Cc1cnn2cc(OCCCCN3CCN(c4cccc(Cl)c4Cl)CC3)ccc12 [Example E54, 6-[4-[4-(2,3-Dichlorophenyl)piperazin-1-yl]butoxy]pyrazolo[1,5-a]pyridine-3-carbaldehyde]
- pKi (human D2long receptor; [2]): > 7.52
- pKi (human D2short receptor; [2]): > 7.52
- pKi (human D3 receptor; [2]): > 7.52
- pKi (human D4.4 receptor; [2]): > 7.52
- pKi (5-HT1A receptor; porcine cortical membranes): > 7.52
- pKi (5-HT2 receptor; [3]): 6.52 to 7.52
- melting point: 99 °C
- Emax [1, 4]: < 15%

Structure (SMILES): COc1ccccc1N1CCN(CCCCOc2ccn3ncc(Cl)c3c2)CC1 [Example E46, 3-Chloro-5-[4-[4-(2-methoxyphenyl)piperazin-1-yl]butoxy]pyrazolo[1,5-a]pyridine]
- pKi (human D2long receptor; [2]): > 7.52
- pKi (human D2long receptor; [5]): 8.17
- pKi (human D2short receptor; [2]): > 7.52
- pKi (human D2short receptor; [5]): 8.37
- pKi (human D3 receptor; [2]): > 7.52
- pKi (human D3 receptor; [5]): 8.34
- ratio D2lo/D3 (human D3 receptor; ratio of Ki values): 1.5
- pKi (human D4.4 receptor; [2]): > 7.52
- pKi (human D4.4 receptor; [5]): 8.49
- pKi (5-HT1A receptor; [5]): 8.06
- pKi (5-HT1A receptor; porcine cortical membranes): > 7.52
- pKi (5-HT2 receptor; [5]): 6.04
- pKi (5-HT2 receptor; [3]): 5.52 to 6.52
- melting point: 68 °C
- Emax [1, 4]: < 15%

Structure (SMILES): O=Cc1cnn2cccc(OCCCCN3CCN(c4ccccc4Cl)CC3)c12 [Example E12, 4-[4-[4-(2-Chlorophenyl)piperazin-1-yl]butoxy]pyrazolo[1,5-a]pyridine-3-carbaldehyde]
- pKi (human D2long receptor; [2]): > 7.52
- pKi (human D2short receptor; [2]): > 7.52
- pKi (human D3 receptor; [2]): 6.52 to 7.52
- pKi (human D4.4 receptor; [2]): > 7.52
- pKi (5-HT1A receptor; porcine cortical membranes): > 7.52
- pKi (5-HT2 receptor; [3]): 5.52 to 6.52
- melting point: 125 °C
- Emax [1, 6]: 15 to 40%

Structure (SMILES): Clc1cccc(N2CCN(CCCOCc3ccn4nccc4c3)CC2)c1Cl [Example E13, 5-[3-[4-(2,3-Dichlorophenyl)piperazin-1-yl]propoxymethyl]pyrazolo[1,5-a]pyridine]
- pKi (human D2long receptor; [2]): > 7.52
- pKi (human D2short receptor; [2]): > 7.52
- pKi (human D3 receptor; [2]): > 7.52
- pKi (human D4.4 receptor; [2]): 6.52 to 7.52
- pKi (5-HT1A receptor; porcine cortical membranes): 6.52 to 7.52
- pKi (5-HT2 receptor; [3]): 6.52 to 7.52
- melting point: 69 °C
- Emax [1, 6]: < 15%

Structure (SMILES): Clc1cccc(N2CCN(CCCCOc3ccn4ncc(I)c4c3)CC2)c1Cl [Example E48, 5-[4-[4-(2,3-Dichlorophenyl)piperazin-1-yl]butoxy]3-iodo-pyrazolo[1,5-a]pyridine]
- pKi (human D2long receptor; [2]): 6.52 to 7.52
- pKi (human D2short receptor; [2]): > 7.52
- pKi (human D3 receptor; [2]): > 7.52
- pKi (human D4.4 receptor; [2]): 6.52 to 7.52
- pKi (5-HT1A receptor; porcine cortical membranes): 5.52 to 6.52
- pKi (5-HT2 receptor; [3]): 5.52 to 6.52
- melting point: 110 °C
- Emax [1, 4]: < 15%

Structure (SMILES): O=Cc1cnn2ccc(OCCCCN3CCN(c4ccc(O)cc4)CC3)cc12 [Example E26, 5-[4-[4-(4-Hydroxyphenyl)piperazin-1-yl]butoxy]pyrazolo[1,5-a]pyridine-3-carbaldehyde]
- pKi (human D2long receptor; [2]): 6.52 to 7.52
- pKi (human D2short receptor; [2]): > 7.52
- pKi (human D3 receptor; [2]): 6.52 to 7.52
- pKi (human D4.4 receptor; [2]): 6.52 to 7.52
- pKi (5-HT1A receptor; porcine cortical membranes): 6.52 to 7.52
- pKi (5-HT2 receptor; [3]): 5.52 to 6.52
- melting point: 164 °C
- Emax [1, 4]: 40 to 75%

Structure (SMILES): Clc1ccccc1N1CCN(CCCCOc2ccn3nccc3c2)CC1 [Example E17, 5-[4-[4-(2-Chlorophenyl)piperazin-1-yl]butoxy]pyrazolo[1,5-a]pyridine]
- pKi (human D2long receptor; [2]): > 7.52
- pKi (human D2short receptor; [2]): > 7.52
- pKi (human D3 receptor; [2]): > 7.52
- pKi (human D4.4 receptor; [2]): 6.52 to 7.52
- pKi (5-HT1A receptor; porcine cortical membranes): 6.52 to 7.52
- pKi (5-HT2 receptor; [3]): 5.52 to 6.52
- melting point: 163 °C
- Emax [1, 4]: 15 to 40%

Structure (SMILES): O=Cc1cnn2ccc(OCCCCN3CCN(c4ccc(Cl)cc4)CC3)cc12 [Example E25]
- pKi (human D2long receptor; [2]): > 7.52
- pKi (human D2short receptor; [2]): > 7.52
- pKi (human D3 receptor; [2]): 6.52 to 7.52
- pKi (human D4.4 receptor; [2]): 6.52 to 7.52
- pKi (5-HT1A receptor; porcine cortical membranes): 6.52 to 7.52
- pKi (5-HT2 receptor; [3]): 5.52 to 6.52
- melting point: 113 °C
- Emax [1, 4]: 15 to 40%

Structure (SMILES): COc1ccccc1N1CCN(CCCCOc2ccn3ncc(I)c3c2)CC1 [Example E49, 3-Iodo-5-[4-[4-(2-methoxyphenyl)piperazin-1-yl]butoxy]pyrazolo[1,5-a]pyridine]
- pKi (human D2long receptor; [2]): > 7.52
- pKi (human D2short receptor; [2]): > 7.52
- pKi (human D3 receptor; [2]): > 7.52
- pKi (human D4.4 receptor; [2]): > 7.52
- pKi (5-HT1A receptor; porcine cortical membranes): > 7.52
- pKi (5-HT2 receptor; [3]): 5.52 to 6.52
- melting point: 61 °C
- Emax [1, 4]: < 15%

Structure (SMILES): Clc1cccc(N2CCN(CCCCOc3ccn4nccc4c3)CC2)c1Cl [Example E15, 5-[4-[4-(2,3-Dichlorophenyl)piperazin-1-yl]butoxy]pyrazolo[1,5-a]pyridine]
- pKi (human D2long receptor; [2]): 6.52 to 7.52
- pKi (human D2short receptor; [2]): 6.52 to 7.52
- pKi (human D3 receptor; [2]): > 7.52
- pKi (human D4.4 receptor; [2]): 6.52 to 7.52
- pKi (5-HT1A receptor; porcine cortical membranes): 6.52 to 7.52
- pKi (5-HT2 receptor; [3]): 5.52 to 6.52
- melting point: 105 °C
- Emax [1, 4]: 15 to 40%

Structure (SMILES): COC(=O)c1cnn2ccc(OCCCCN3CCN(c4cccc(Cl)c4Cl)CC3)cc12 [Example E39, Methyl 5-[4-[4-(2,3-dichlorophenyl)piperazin-1-yl]butoxy]pyrazolo[1,5-a]pyridine-3-carboxylate]
- pKi (human D2long receptor; [2]): > 7.52
- pKi (human D2short receptor; [2]): > 7.52
- pKi (human D3 receptor; [2]): > 7.52
- pKi (human D4.4 receptor; [2]): > 7.52
- pKi (5-HT1A receptor; porcine cortical membranes): > 7.52
- pKi (5-HT2 receptor; [3]): 6.52 to 7.52
- melting point: 73 °C
- Emax [1, 4]: < 15%
